Source: patent US10780074B2, “Compounds and uses thereof” (Sunovion Pharmaceuticals Inc., priority 2017, dated 2020)
Where a name gives a salt, the structure may show the parent alone.

System: behaviors of compound-treated mice
Test: Neuropharmacological Assay (SmartCube)
Assay type: in vivo
Conditions: for minimal effective dose: Mus musculus, ip, 0.25 h, dose having 50% or more total activity in SmartCube, i.p., read-out: MED (minimal effective dose); for AD: ADHD (probability that activity matches class) / AG: analgesic (probability that activity matches class) / AX: anxiolytic (probability that activity matches class) / CE: cognitive enhancer (probability that activity matches class) / DP: anti-depressant (probability that activity matches class) / MS: mood stabilizer (probability that activity matches class) / PS: anti-psychotic (probability that activity matches class) / SD: sedative hypnotic (probability that activity matches class) / UN: uncharacterized CNS activity (probability that activity matches class): i.p. 15 min before behavioral test, most efficacious dose(s) of 3 doses
How it was run: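 Mice dosed i.p. 15 min before testing, with compound in N-methyl-2-pyrrolidone/PEG/propylene glycol, were video-recorded and algorithmically compared with reference-drug behavioral signatures. This gave class-match probabilities (antidepressant, anxiolytic, etc.) at the most efficacious of 3 doses. MED was defined as the dose with ≥50% total activity, usually tested across 0.3–30 mpk.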

Row | SMILES | minimal effective dose [mg/kg] | AD: ADHD (probability that activity matches class) | AG: analgesic (probability that activity matches class) | AX: anxiolytic (probability that activity matches class) | CE: cognitive enhancer (probability that activity matches class) | DP: anti-depressant (probability that activity matches class) | MS: mood stabilizer (probability that activity matches class) | PS: anti-psychotic (probability that activity matches class) | SD: sedative hypnotic (probability that activity matches class) | UN: uncharacterized CNS activity (probability that activity matches class)
1 | NC[C@@H]1OCCCc2c(-c3ccncn3)cccc21 (single isomer, unassigned) [Compound 166] | 10 to 30 | + (LOQ ≤ + <5%) | + (LOQ ≤ + <5%) | + (LOQ ≤ + <5%) | + (LOQ ≤ + <5%) | + (LOQ ≤ + <5%) | + (LOQ ≤ + <5%) | + (LOQ ≤ + <5%) | + (LOQ ≤ + <5%) | + (LOQ ≤ + <5%)
2 | CNC[C@H]1OCCc2c(-c3cocn3)cccc21 [Compound 103, (S)—N-methyl-1-(5-(oxazol-4-yl)isochroman-1-yl)methanamine HCl salt] | ≤ 3 | ++ (5% ≤ ++ <25%) | + (LOQ ≤ + <5%) | ++ (5% ≤ ++ <25%) | + (LOQ ≤ + <5%) | ++++ (50% ≤ ++++) | + (LOQ ≤ + <5%) | + (LOQ ≤ + <5%) | + (LOQ ≤ + <5%) | + (LOQ ≤ + <5%)
3 | CNCC1OCCc2c(-c3cncs3)cccc21 (centres unmarked) [Compound 52, N-Methyl-1-(5-(thiazol-5-yl)isochroman-1-yl)methanamine hydrochloride] | 3 to 10 | + (LOQ ≤ + <5%) | + (LOQ ≤ + <5%) | + (LOQ ≤ + <5%) | + (LOQ ≤ + <5%) | ++++ (50% ≤ ++++) | + (LOQ ≤ + <5%) | + (LOQ ≤ + <5%) | + (LOQ ≤ + <5%) | ++ (5% ≤ ++ <25%)
4 | CNC[C@@H]1OCCc2c(-c3ccno3)cccc21 [Compound 94, (R)-1-(5-(Isoxazol-5-yl)isochroman-1-yl)-N-methylmethanamine] | 10 to 30 | + (LOQ ≤ + <5%) | + (LOQ ≤ + <5%) | + (LOQ ≤ + <5%) | + (LOQ ≤ + <5%) | + (LOQ ≤ + <5%) | + (LOQ ≤ + <5%) | + (LOQ ≤ + <5%) | + (LOQ ≤ + <5%) | + (LOQ ≤ + <5%)
5 | CNC[C@@H]1OCc2c(-c3ccncc3)cccc21 (single isomer, unassigned) [Compound 39, hydrochloride salt] | ≤ 3 | ++ (5% ≤ ++ <25%) | + (LOQ ≤ + <5%) | ++ (5% ≤ ++ <25%) | + (LOQ ≤ + <5%) | ++++ (50% ≤ ++++) | + (LOQ ≤ + <5%) | + (LOQ ≤ + <5%) | ++ (5% ≤ ++ <25%) | + (LOQ ≤ + <5%)
6 | NCC1OCCc2c(-c3cnoc3)cccc21 (centres unmarked) [Compound 64, (5-(Isoxazol-4-yl)isochroman-1-yl)methanamine hydrochloride salt] | 3 to 10 | + (LOQ ≤ + <5%) | + (LOQ ≤ + <5%) | + (LOQ ≤ + <5%) | + (LOQ ≤ + <5%) | ++++ (50% ≤ ++++) | + (LOQ ≤ + <5%) | + (LOQ ≤ + <5%) | + (LOQ ≤ + <5%) | ++ (5% ≤ ++ <25%)
7 | CNC[C@@H]1OCCCc2c(-c3ccccn3)cccc21 (single isomer, unassigned) [Compound 156, hydrochloride salt] | 10 to 30 | + (LOQ ≤ + <5%) | + (LOQ ≤ + <5%) | + (LOQ ≤ + <5%) | + (LOQ ≤ + <5%) | + (LOQ ≤ + <5%) | + (LOQ ≤ + <5%) | + (LOQ ≤ + <5%) | + (LOQ ≤ + <5%) | + (LOQ ≤ + <5%)
8 | NC[C@H]1OCCc2c(-c3cn[nH]c3)cccc21 [Compound 117, (S)-(5-(1H-pyrazol-4-yl)isochroman-1-yl)methanamine hydrochloride salt] | 3 to 10 | + (LOQ ≤ + <5%) | + (LOQ ≤ + <5%) | ++ (5% ≤ ++ <25%) | + (LOQ ≤ + <5%) | ++ (5% ≤ ++ <25%) | + (LOQ ≤ + <5%) | ++ (5% ≤ ++ <25%) | ++ (5% ≤ ++ <25%) | ++ (5% ≤ ++ <25%)
9 | NC[C@H]1OCCc2c(-c3c[nH]cn3)cccc21 (single isomer, unassigned) [Compound 113, hydrochloride salt] | 3 to 10 | + (LOQ ≤ + <5%) | ++ (5% ≤ ++ <25%) | ++ (5% ≤ ++ <25%) | + (LOQ ≤ + <5%) | ++ (5% ≤ ++ <25%) | + (LOQ ≤ + <5%) | +++ (25% ≤ +++ <50%) | + (LOQ ≤ + <5%) | +++ (25% ≤ +++ <50%)
10 | NC[C@H]1OCCc2c(-c3cnco3)cccc21 (single isomer, unassigned) [Compound 99, hydrochloride salt] | ≤ 3 | + (LOQ ≤ + <5%) | ++ (5% ≤ ++ <25%) | ++ (5% ≤ ++ <25%) | ++ (5% ≤ ++ <25%) | + (LOQ ≤ + <5%) | + (LOQ ≤ + <5%) | + (LOQ ≤ + <5%) | ++ (5% ≤ ++ <25%) | +++ (25% ≤ +++ <50%)
11 | CNC[C@@H]1OCCc2cccc(-c3cccnc3)c21 (single isomer, unassigned) [Compound 1, bis-hydrochloride] | 10 to 30 | + (LOQ ≤ + <5%) | + (LOQ ≤ + <5%) | ++ (5% ≤ ++ <25%) | ++ (5% ≤ ++ <25%) | ++ (5% ≤ ++ <25%) | + (LOQ ≤ + <5%) | ++ (5% ≤ ++ <25%) | + (LOQ ≤ + <5%) | ++ (5% ≤ ++ <25%)
